Data: US6642274B1, “Methods and compositions for preventing and treating prostate disorders” (priority 1999, dated 2003)

Experiments:
[1] = test system: cancer cell cultures; conditions: cited from earlier work
[2] = rapid hydrolysis by serum and tissue esterases into alpha-tocopherol; cited from earlier work
[3] = test system: cancer cell cultures; assay: Cytostatic or cytotoxic effects on cancer cell cultures; format: cell-based; conditions: after hydrolysis of alpha-tocopherol succinate into alpha-tocopherol
Source text: (§1) Szarka reviews the strategy of chemoprevention as a possible method of blocking the development of cancers in humans (C F Szarka et al “Chemoprevention of cancer” Curr Probl Cancer 1994 January-February; 18(1):6-79).

[4] = in vivo
Source text: as §1

[5] = test system: 5alpha-reductase; conditions: after daily dosing with 5 milligrams; cited from earlier work
[6] = test system: BPH; conditions: cited from earlier work

Cc1c(C)c2c(c(C)c1OC(=O)CCC(=O)O)CC[C@@](C)(CCC[C@H](C)CCC[C@H](C)CCCC(C)C)O2 [alpha-tocopherol succinate]
concentration necessary to demonstrate cytostatic or cytotoxic effects [1]: 10 µM | levels available systemically after oral administration [2]: undetectable levels

Cc1c(C)c2c(c(C)c1O)CC[C@@](C)(CCC[C@H](C)CCC[C@H](C)CCCC(C)C)O2 [alpha-tocopherol]
concentration necessary to demonstrate cytostatic or cytotoxic effects [1]: 0.5 millimolar | reduction in potency relative to alpha-tocopherol succinate [3]: 50 fold | factor by which minimal target tissue concentration exceeds the maximum levels possible in oral administration [4]: 7-10 fold

O=C1O[C@H]([C@@H](O)CO)C(O)=C1O [ascorbic acid]
concentration necessary to demonstrate cytostatic or cytotoxic effects [1]: 1-2 millimolar | factor by which minimal target tissue concentration exceeds the maximum levels possible in oral administration [4]: 10-20 fold

CC(C)(C)NC(=O)[C@H]1CC[C@H]2[C@@H]3CC[C@H]4NC(=O)C=C[C@]4(C)[C@H]3CC[C@]12C [finasteride]
reduction in serum dihydrotestosterone levels [5]: 70% | side effects in men ([6]; oral administration): erectile dysfunction, decreased volume of ejaculate and loss of libido | increase in peak urinary flow rates ([6]; two large clinical studies, finasteride treatment): ~1.6 mls/second
